In patent US11739098B2 (BRISTOL-MYERS SQUIBB COMPANY, priority 2017, dated 2023):

Tests used:
Format in all cases: cell-based
human TLR8 = target: T1, human TLR8 (Homo sapiens, UniProt Q9NR97); experiment: TLR8 inhibition reporter assay (HEK-Blue cells, SEAP reporter, R848 stimulation); settings: HEK-Blue cells overexpressing human TLR8, SEAP reporter, R848 15.9 μM
T1 construct: host or cells: HEK-Blue cells (HEK293-derived reporter line)
T1 sequence (Q9NR97 27-1041): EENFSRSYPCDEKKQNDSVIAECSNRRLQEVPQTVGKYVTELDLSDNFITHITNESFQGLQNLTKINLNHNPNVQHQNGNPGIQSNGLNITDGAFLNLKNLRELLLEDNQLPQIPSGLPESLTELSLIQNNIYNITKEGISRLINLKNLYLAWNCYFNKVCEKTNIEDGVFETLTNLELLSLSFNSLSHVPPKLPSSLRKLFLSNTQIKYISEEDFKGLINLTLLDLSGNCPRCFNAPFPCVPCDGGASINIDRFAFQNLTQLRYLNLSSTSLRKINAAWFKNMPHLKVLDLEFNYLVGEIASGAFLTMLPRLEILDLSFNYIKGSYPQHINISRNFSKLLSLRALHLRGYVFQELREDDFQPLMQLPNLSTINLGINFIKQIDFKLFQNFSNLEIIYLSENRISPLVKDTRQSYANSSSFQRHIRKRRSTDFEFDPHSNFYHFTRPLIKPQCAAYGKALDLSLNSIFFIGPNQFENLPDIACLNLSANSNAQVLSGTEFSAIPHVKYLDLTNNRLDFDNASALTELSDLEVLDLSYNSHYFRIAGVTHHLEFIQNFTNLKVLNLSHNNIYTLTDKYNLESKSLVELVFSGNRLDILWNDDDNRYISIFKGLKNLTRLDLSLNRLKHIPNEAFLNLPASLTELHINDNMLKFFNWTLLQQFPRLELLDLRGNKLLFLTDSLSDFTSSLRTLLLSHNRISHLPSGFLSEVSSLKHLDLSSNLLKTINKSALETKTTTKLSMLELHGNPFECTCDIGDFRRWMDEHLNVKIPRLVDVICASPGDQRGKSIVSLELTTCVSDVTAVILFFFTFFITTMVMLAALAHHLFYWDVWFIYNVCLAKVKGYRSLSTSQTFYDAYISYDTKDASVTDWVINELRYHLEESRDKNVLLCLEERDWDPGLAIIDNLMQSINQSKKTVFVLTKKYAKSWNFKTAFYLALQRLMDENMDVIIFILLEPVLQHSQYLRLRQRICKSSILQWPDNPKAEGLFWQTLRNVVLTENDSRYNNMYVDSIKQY
In short: (§1)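 Cells seeded per well (15000 TLR7, 20,000 TLR8, 25,000 TLR9); compound added over 0.05 nM–50 μM for 30 min at room temperature; agonist added (TLR7 gardiquimod 7.5 μM, TLR8 R848 15.9 μM, TLR9 ODN2006 5 nM); 22 h at 37 °C; SEAP measured; percent inhibition calculated.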

human TLR7 = target: T2, human TLR7 (Homo sapiens, UniProt Q9NYK1); experiment: TLR7 inhibition reporter assay (HEK-Blue cells, SEAP reporter, gardiquimod stimulation); settings: HEK-Blue cells overexpressing human TLR7, SEAP reporter, gardiquimod 7.5 μM
T2 construct: host or cells: HEK-Blue cells (HEK293-derived reporter line)
T2 sequence (Q9NYK1 27-1049): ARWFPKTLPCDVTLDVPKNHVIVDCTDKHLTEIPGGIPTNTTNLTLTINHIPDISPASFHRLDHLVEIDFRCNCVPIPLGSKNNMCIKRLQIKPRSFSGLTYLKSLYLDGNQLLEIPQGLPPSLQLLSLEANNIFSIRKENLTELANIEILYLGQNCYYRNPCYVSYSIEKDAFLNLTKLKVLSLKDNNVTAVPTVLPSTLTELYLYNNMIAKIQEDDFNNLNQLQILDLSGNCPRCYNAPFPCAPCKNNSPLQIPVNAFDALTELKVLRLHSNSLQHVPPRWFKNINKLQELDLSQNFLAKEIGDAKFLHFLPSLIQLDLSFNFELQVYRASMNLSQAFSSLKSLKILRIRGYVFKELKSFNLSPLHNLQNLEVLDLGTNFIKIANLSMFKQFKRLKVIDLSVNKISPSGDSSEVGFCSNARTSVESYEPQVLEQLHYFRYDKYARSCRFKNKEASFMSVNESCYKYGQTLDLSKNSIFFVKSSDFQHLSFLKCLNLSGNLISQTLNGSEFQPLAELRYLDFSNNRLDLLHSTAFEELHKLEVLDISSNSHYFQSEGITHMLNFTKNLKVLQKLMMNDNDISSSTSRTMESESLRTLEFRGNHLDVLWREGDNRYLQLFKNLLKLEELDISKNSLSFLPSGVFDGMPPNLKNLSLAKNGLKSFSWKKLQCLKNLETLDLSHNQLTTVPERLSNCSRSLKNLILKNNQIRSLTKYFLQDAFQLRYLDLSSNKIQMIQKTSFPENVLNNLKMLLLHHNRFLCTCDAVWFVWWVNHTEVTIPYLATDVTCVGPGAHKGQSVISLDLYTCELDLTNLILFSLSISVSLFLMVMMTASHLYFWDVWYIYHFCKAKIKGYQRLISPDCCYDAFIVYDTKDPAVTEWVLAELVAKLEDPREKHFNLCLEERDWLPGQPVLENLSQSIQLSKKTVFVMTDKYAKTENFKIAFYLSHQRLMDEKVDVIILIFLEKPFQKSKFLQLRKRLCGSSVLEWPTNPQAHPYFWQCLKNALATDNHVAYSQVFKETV
In short: as §1

human TLR9 = target: T3, human TLR9 (Homo sapiens, UniProt Q9NR96); experiment: TLR9 inhibition reporter assay (HEK-Blue cells, SEAP reporter, ODN2006 stimulation); settings: HEK-Blue cells overexpressing human TLR9, SEAP reporter, ODN2006 5 nM
T3 construct: host or cells: HEK-Blue cells (HEK293-derived reporter line)
T3 sequence (Q9NR96 26-1032): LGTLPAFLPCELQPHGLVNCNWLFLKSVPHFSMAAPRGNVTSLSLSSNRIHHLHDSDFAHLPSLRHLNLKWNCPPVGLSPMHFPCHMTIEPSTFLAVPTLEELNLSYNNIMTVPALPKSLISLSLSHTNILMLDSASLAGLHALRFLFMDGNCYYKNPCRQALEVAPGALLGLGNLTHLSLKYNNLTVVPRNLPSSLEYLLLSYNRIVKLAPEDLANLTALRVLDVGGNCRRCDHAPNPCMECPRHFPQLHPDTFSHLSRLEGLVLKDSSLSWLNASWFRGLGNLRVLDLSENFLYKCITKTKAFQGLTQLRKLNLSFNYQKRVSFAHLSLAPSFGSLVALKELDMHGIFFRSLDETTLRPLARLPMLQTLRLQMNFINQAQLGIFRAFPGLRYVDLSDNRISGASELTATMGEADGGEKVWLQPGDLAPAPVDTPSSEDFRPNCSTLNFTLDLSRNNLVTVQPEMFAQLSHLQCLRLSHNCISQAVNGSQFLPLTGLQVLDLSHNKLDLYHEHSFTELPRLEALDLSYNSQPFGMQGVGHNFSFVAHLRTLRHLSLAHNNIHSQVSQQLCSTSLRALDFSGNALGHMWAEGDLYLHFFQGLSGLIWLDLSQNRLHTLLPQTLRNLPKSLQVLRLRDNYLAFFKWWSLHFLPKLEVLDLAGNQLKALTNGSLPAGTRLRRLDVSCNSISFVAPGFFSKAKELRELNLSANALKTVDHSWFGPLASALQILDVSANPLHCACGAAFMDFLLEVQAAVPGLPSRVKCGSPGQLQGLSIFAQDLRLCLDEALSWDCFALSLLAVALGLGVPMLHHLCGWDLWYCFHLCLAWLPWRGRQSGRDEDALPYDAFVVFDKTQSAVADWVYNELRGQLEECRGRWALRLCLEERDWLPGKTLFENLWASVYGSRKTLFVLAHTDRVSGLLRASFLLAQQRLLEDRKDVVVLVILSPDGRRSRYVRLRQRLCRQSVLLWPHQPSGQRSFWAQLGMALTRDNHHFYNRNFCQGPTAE
In short: as §1

IC50 (human TLR8) [nM]	IC50 (human TLR7) [nM]	IC50 (human TLR9) [nM]	SMILES
100 to 1000	< 100	1000 to 50000	CNC(=O)CN1CCC(c2ccc3[nH]c(-c4cc(C(F)(F)F)c5nc(C)cn5c4)c(C(C)C)c3c2)CC1 [Example 377, 2-(4-(3-isopropyl-2-(2-methyl-8-(trifluoromethyl)imidazo[1,2-a]pyridin-6-yl)-1H-indol-5-yl)piperidin-1-yl)-N-methylacetamide]
100 to 1000	1000 to 50000	1000 to 50000	COc1c[nH]c2nccc(-c3[nH]c4ccc(C5CCNCC5)cc4c3C)c12 [Example 213, 3-methoxy-4-(3-methyl-5-(piperidin-4-yl)-1H-indol-2-yl)-1H-pyrrolo[2,3-b]pyridine]
< 100	1000 to 50000	< 100	Cc1c(-c2ccnc3c2ccn3C)[nH]c2ccc(C3CCN(C4CCN(C(C)C)CC4)CC3)cc12 [Example 844, 4-(5-(1′-isopropyl-[1,4′-bipiperidin]-4-yl)-3-methyl-1H-indol-2-yl)-1-methyl-1H-pyrrolo[2,3-b]pyridine]
100 to 1000	100 to 1000	100 to 1000	CC(C)c1c(-c2cnc3nccn3c2)[nH]c2ccc(C3CCN(CC(=O)N(C)C)CC3)cc12 [Example 363, 2-(4-(2-(imidazo[1,2-a]pyrimidin-6-yl)-3-isopropyl-1H-indol-5-yl)piperidin-1-yl)-N,N-dimethylacetamide]
100 to 1000	100 to 1000	1000 to 50000	CC(C)c1c(-c2ccnc3[nH]ncc23)[nH]c2ccc(C3CCN(CC4CCN(C(C)C)CC4)CC3)c(F)c12 [Example 967, 4-(4-fluoro-3-isopropyl-5-(1-((1-isopropylpiperidin-4-yl)methyl)piperidin-4-yl)-1H-indol-2-yl)-1H-pyrazolo[3,4-b]pyridine]
100 to 1000	100 to 1000	1000 to 50000	CCc1c(-c2ccnc3[nH]ncc23)[nH]c2ccc(C3CCNCC3O)cc12 (stereo not drawn) [Example 175, 4-(3-ethyl-2-(1H-pyrazolo[3,4-b]pyridin-4-yl)-1H-indol-5-yl)piperidin-3-ol]
> 3130	1000 to 50000	100 to 1000	CNCCN1CCC(c2ccc3[nH]c(-c4ccc5scnc5c4)c(C)c3c2)CC1 [compound 659]
< 100	< 100	1000 to 50000	Cc1ccnc2c1c(-c1[nH]c3ccc(C4CCN(C(=O)CN(C)C)CC4)cc3c1C(C)C)cn2C [Example 457, 1-(4-(2-(1,4-dimethyl-1H-pyrrolo[2,3-b]pyridin-3-yl)-3-isopropyl-1H-indol-5-yl)piperidin-1-yl)-2-(dimethylamino)ethan-1-one]
< 100	< 100	1000 to 50000	Cc1cc(-c2[nH]c3ccc(C4CCN(C(=O)CCN5CCOCC5)CC4)cc3c2C(C)C)cn2nnnc12 [Example 627, 1-(4-(3-isopropyl-2-(8-methyltetrazolo[1,5-a]pyridin-6-yl)-1H-indol-5-yl)piperidin-1-yl)-3-morpholinopropan-1-one]
1000 to 50000	1000 to 50000	100 to 1000	Cc1c(-c2ccnn3ccnc23)[nH]c2ccc(C3CCN(C4CCN(C(C)C)CC4)CC3)cc12 [Example 807, 8-(5-(1′-isopropyl-[1,4′-bipiperidin]-4-yl)-3-methyl-1H-indol-2-yl)imidazo[1,2-b]pyridazine]
< 100	< 100	1000 to 50000	CC(C)c1c(-c2ccnc3[nH]ncc23)[nH]c2ccc(C3CCN(Cc4cnccn4)CC3)cc12 [Example 903, 4-(3-isopropyl-5-(1-(pyrazin-2-ylmethyl)piperidin-4-yl)-1H-indol-2-yl)-1H-pyrazolo[3,4-b]pyridine]
< 100	100 to 1000	100 to 1000	CCc1c(-c2cnc3ncccn23)[nH]c2ccc(C3CCNCC3)cc12 [Example 29, 3-(3-ethyl-5-(piperidin-4-yl)-1H-indol-2-yl) imidazo[1,2-a]pyrimidine]
100 to 1000	< 100	1000 to 50000	CCc1c(-c2ccn3ncnc3c2)[nH]c2ccc(C3CCNCC3)cc12 [Example 198, 7-(3-ethyl-5-(piperidin-4-yl)-1H-indol-2-yl)-[1,2,4]triazolo[1,5-a]pyridine]
< 100	< 100	1000 to 50000	COc1c(C)c(-c2[nH]c3ccc(C4CCN(CC(C)(C)O)CC4)cc3c2C(C)C)nn2ncnc12 [Example 748, 1-(4-(3-isopropyl-2-(8-methoxy-7-methyl-[1,2,4]triazolo[1,5-b]pyridazin-6-yl)-1H-indol-5-yl)piperidin-1-yl)-2-methylpropan-2-ol]
100 to 1000	100 to 1000	100 to 1000	COc1cc(-c2[nH]c3ccc(C4CCN(CC(=O)N(C)C)CC4)cc3c2C(C)C)cc2nc(C)cn12 [Example 334, 2-(4-(3-isopropyl-2-(5-methoxy-2-methylimidazo[1,2-a]pyridin-7-yl)-1H-indol-5-yl)piperidin-1-yl)-N,N-dimethylacetamide]
